Assays:
Format in all cases: physicochemical
[1] = Dye and chlorine stability test, effect of pH; settings: 1 ppm dye; for Initial Color/Appearance: additional formulations; for Initial Color/Appearance / Time needed for solution to become colorless: 100 ppm active chlorine; for Color/Appearance: initial 100 ppm chlorine
[2] = Color longevity at varying active chlorine and dye level, pH 5.8; settings: for Initial Color/Appearance / Time needed for solution to become colorless: 1 ppm dye
[3] = Chlorine stability of acid sanitizer solutions; settings: chlorine 12 ppm, pH 5.13

Compound: COc1cc(S(=O)(=O)[O-])c(C)cc1N=Nc1c(O)ccc2cc(S(=O)(=O)[O-])ccc12.[Na+].[Na+] [FD&C Red #40]
- Initial Color/Appearance ([1]; pH buffered at 2): colorless
- Initial Color/Appearance ([1]; pH buffered at 4): visible color
- Initial Color/Appearance ([1]; pH buffered at 5.4): visible color
- Initial Color/Appearance ([1]; pH buffered at 5.8): visible color
- Initial Color/Appearance ([1]; pH buffered at 6): visible color
- Initial Color/Appearance ([1]; pH buffered at 8): visible color
- Initial Color/Appearance ([1]; pH buffered at 10): colorless
- Initial Color/Appearance ([1]; pH buffered at 12): colorless
- Color/Appearance ([1]; pH buffered at 2, 0.0 hours): color gone immediately
- Time needed for solution to become colorless ([1]; pH buffered at 2): none
- Color/Appearance ([1]; pH buffered at 2, 175 hours): no color
- Time needed for solution to become colorless ([1]; pH buffered at 4): 2.5 h
- Color/Appearance ([1]; pH buffered at 4, 2.5 hours): color gone
- Color/Appearance ([1]; pH buffered at 4, 175 hours): no color
- Time needed for solution to become colorless ([1]; pH buffered at 5.4): 15 h
- Time needed for solution to become colorless ([1]; pH buffered at 5.8): 5.0 h
- Time needed for solution to become colorless ([1]; pH buffered at 6): 4.0 h
- Color/Appearance ([1]; pH buffered at 6, 5.0 hours): slightly visible
- Color/Appearance ([1]; pH buffered at 6, 175 hours): no color
- Time needed for solution to become colorless ([1]; pH buffered at 8): 0.25 h
- Color/Appearance ([1]; pH buffered at 8, 0.25 hours): color gone
- Color/Appearance ([1]; pH buffered at 8, 175 hours): no color
- Color/Appearance ([1]; pH buffered at 10, 0.0 hours): color gone immediately
- Time needed for solution to become colorless ([1]; pH buffered at 10): none
- Color/Appearance ([1]; pH buffered at 10, 175 hours): no color
- Color/Appearance ([1]; pH buffered at 12, 0.0 hours): color gone immediately
- Time needed for solution to become colorless ([1]; pH buffered at 12): none
- Color/Appearance ([1]; pH buffered at 12, 175 hours): no color
- Initial Color/Appearance ([2]; 10 ppm available chlorine): visible
- Time needed for solution to become colorless ([2]; 10 ppm available chlorine): more than 6.0 hours
- Initial Color/Appearance ([2]; 30 ppm available chlorine): visible
- Time needed for solution to become colorless ([2]; 30 ppm available chlorine): 6.0 h
- Initial Color/Appearance ([2]; 50 ppm available chlorine): visible
- Time needed for solution to become colorless ([2]; 50 ppm available chlorine): 5.0 h
- Initial Color/Appearance ([2]; 80 ppm available chlorine): visible
- Time needed for solution to become colorless ([2]; 80 ppm available chlorine): 4.5 h
- Initial Color/Appearance ([2]; 100 ppm available chlorine): visible
- Time needed for solution to become colorless ([2]; 100 ppm available chlorine): 3.0 h
- relationship between dye concentration and color longevity ([2]; dye level 0.1 to 0.4 wt-%, 100 ppm available chlorine): linear relationship between dye concentration and color longevity

Compound: Chlorinated trisodium phosphate [Chlorinated TSP]
- Chlorine (ppm) Conc. 0 Time ([3]; 0 time): 12.7 ppm
- Chlorine (ppm) Conc. 4 Hours ([3]; 4 hours): 9.93 ppm
- Chlorine (ppm) Conc. 24 Hours ([3]; 24 hours): 5.67 ppm
